Experimental data: patent US20210348164A1, “ENDOGENOUS CYTOPLASMIC ALU COMPLEMENTARY DNA IN AGE-RELATED MACULAR DEGENERATION” (University of Virginia Patent Foundation, priority 2018, published 2021)
“Also recorded” adds a separate entry of the source.

What was measured:
[1] = system: Alu cDNA in primary human RPE cells; assay: Alu cDNA in primary human RPE cells (Alu c-PCR, real-time PCR, in situ hybridization, equator blotting); type: cell-based; details: primary human RPE cells; cytoplasmic fraction; Alu c-PCR
Description: Cell culture and transfection. Primary mouse and human RPE cells were isolated as previously described (Kerur et al., 2018). All cells were maintained at 37° C. in a 5% CO2 environment. Mouse RPE cells were cultured in DMEM supplemented with 20% FBS and penicillin/streptomycin antibiotics at standard concentrations; primary human RPE cells were maintained in DMEM supplemented with 10% FBS and antibiotics. The human RPE cell line ARPE19 was cultured as previously described (Kerur et al., 2018) and maintained in DMEM-F12 containing penicillin/streptomycin, Fungizone, and gentamicin. HEK293T cells were cultured in DMEM with 10% fetal bovine serum (FBS) with 100 U/ml penicillin/streptomycin and 2 mM L-glutamine. Primary wild-type mouse bone marrow-derived macrophages (BMDMs) were isolated, and cultured in Iscove's Modified Dulbecco's Medium (IMDM) supplemented with 30% L929 supernatant containing macrophage-stimulating factor, nonessential amino acids, sodium pyruvate, 10% FBS and antibiotics, 50 μM β-mercaptoethanol (Seo et al., 2015), and serum starved in IMDM with 1% FBS and 100 U/ml penicillin/streptomycin overnight prior to LPS stimulation. NRTIs or NNRTIs were added 30 minutes prior to LPS stimulation and again 30 minutes prior to ATP activation. LPS (100 ng/mL) was added for 3-4 hours prior to the addition of ATP. Cell lysates were collected 30 minutes after addition of ATP (5 mM). Primary human subcutaneous pre-adipocytes (Catalogue No. PCS-210-010, ATCC, Manassas, Va., United States of America) and primary human dermal fibroblasts (Catalogue No. PCS-201-012, ATCC) were grown in fibroblast basal medium with fibroblast growth kit for low serum (ATCC).
Umbilical artery vascular smooth muscle cells (Catalogue No. CC-2579, Lonza, Morristown, N.J., United States of America) were grown in SMGM™-2 Smooth Muscle Growth Medium-2 BULLETKIT™ (Lonza). Primary human skeletal myoblasts (Catalogue No. A11440, Thermo Fisher Scientific) were grown in DMEM with 2% horse serum. Primary human epidermal keratinocytes (Catalogue NO. CO215C, Thermo Fisher Scientific) were grown in EPILIFE® Medium (Thermo Fisher Scientific). Human umbilical vein endothelial cells (HUVEC) were grown in HUVEC EGM™-2 Media (Lonza). Primary human peripheral blood mononuclear cells (Catalogue NO. PCS-800-011, ATCC) were directly used without culture for experiments. RPMI 1640 medium with 10% human serum with human GM-CSF (Miltenyi Biotec Inc., Auburn, Calif., United States of America) was used as media during the experiment. Transfections were performed according to the manufacturer's instructions (LIPOFECTAMINE® 2000, Invitrogen). For transfection of primary human peripheral blood mononuclear cells, HiPerFect Transfection Reagent (Qiagen) was used as previously described (Troegeler et al., 2014). NRTIs were administered 60 minutes before transfection and added again upon replacement of media at 8 hours. To induce acid injury or osmotic stress, primary human RPE cells were treated with HCl (pH 4.0 media) or H2O for 30 minutes, 1 hour, and 2 hours at 37° C. in 5% CO2, respectively. NIH3T3 Tet-ON cells were cultured in DMEM with 10% tetracycline-free fetal bovine serum (FBS) with 100 U/ml penicillin/streptomycin. NIH3T3 Tet-ON cells were transfected with pLD401 (see Taylor et al., 2013; gift of J. D. Boeke, Institute for Systems Genetics, NYU Langone Health, New York, New York, United States of America) and human L1 ORF1p abundance was monitored after 24 hours of doxycycline induction. […]

[2] = system: Alu cDNA in ARPE-19 cells; assay: Alu cDNA in ARPE-19 cells (Alu c-PCR, in situ hybridization); type: cell-based, human; details: Alu c-PCR
Description: Cell culture and transfection. Primary mouse and human RPE cells were isolated as previously described (Kerur et al., 2018). All cells were maintained at 37° C. in a 5% CO2 environment. Mouse RPE cells were cultured in DMEM supplemented with 20% FBS and penicillin/streptomycin antibiotics at standard concentrations; primary human RPE cells were maintained in DMEM supplemented with 10% FBS and antibiotics. The human RPE cell line ARPE19 was cultured as previously described (Kerur et al., 2018) and maintained in DMEM-F12 containing penicillin/streptomycin, Fungizone, and gentamicin. HEK293T cells were cultured in DMEM with 10% fetal bovine serum (FBS) with 100 U/ml penicillin/streptomycin and 2 mM L-glutamine. […]
In situ hybridization. […] Visualization of fluorescein-labelled probe was performed with the TSA™ plus fluorescence system or the TSA™ plus Cy5 system (PerkinElmer). The fluorescent or Cy5 signals were detected using a Leica SP-5 or MR Nikon confocal microscope system. […]

[3] = system: reverse transcriptase activity of cytoplasmic fractions of F9 cells; assay: In vitro reverse transcriptase activity of cytoplasmic fractions (Alu RNA-templated, Alu-specific qPCR); type: biochemical, mouse
Description: In vitro reverse transcriptase (RT) activity. In vitro reverse transcriptase (RT) activity in nuclear and cytoplasmic protein fractions was assessed using an Alu RNA-templated reaction. The RT reaction was carried out in a 20 μl reaction mix containing Alu RNA template (10 ng); Alu primer ([…]); dNTPs mix; cytoplasmic or nuclear protein, and Quantiscript RT Buffer (Qiagen). The reaction mixture was incubated at 42° C. for 30 minutes. The resulting cDNA was quantified by qPCR using Alu RNA template-specific primers. The reaction to evaluate self-priming activity of Alu RNA was carried out in the absence of priming oligos in a 20 μl reaction mix containing: Alu RNA with 3′-U tail; dNTP mix; cytoplasmic protein from mouse RPE cells; and Quantiscript RT Buffer (Qiagen) as described above. The resulting cDNA product was quantified by qPCR using Alu RNA template-specific primers. Alu RNA tailed on the 3′ end with chain terminator dideoxy thymidine base (ddTTP) was generated using TdT (New England Biolabs (NEB)) according to the manufacturer's instructions. Alu RNA tailed on the 3′ end with chain terminator cordycepin tri-phosphate was generated using PAP (NEB) according to the manufacturer's instructions.

reverse transcriptase = details: Fowler et al., 2014; Ambati et al., 2018; cited from earlier work

Row | Compound | Endogenous Alu cDNA abundance [1] | Endogenous Alu cDNA abundance [2] | Alu cDNA formation from Alu RNA (reverse transcriptase activity) [3] | inhibition of reverse transcriptase (reverse transcriptase)
1 | Cc1cn([C@H]2C=C[C@@H](CO)O2)c(=O)[nH]c1=O [d4T, 2′,3′-didehydro-2′,3′-dideoxythymidine] | dramatically decreased Alu cDNA levels; also recorded: reduced | reduced | – | –
2 | azidothymidine triphosphate [AZT-TP] | – | – | reduced Alu cDNA synthesis; also recorded: reduced Alu cDNA formation | inhibits reverse transcription
